Tested on: monoclonal antibody specific for the N-terminal region of GLP-1 (7-37)
Test: Cross reactivity of the RIA antibody used to determine plasma concentrations
Type: binding
Details: RIA at 4°C
Description: The entire procedure was carried out at 4°C.
The assay was carried out as follows: 100 µl plasma was mixed with 271 µl 96% ethanol, mixed using a vortex mixer and centrifuged at 2600*g for 30 min. The supernatant was decanted into Minisorp tubes and evaporated completely (Savant Speedvac AS290). The evaporation residue was reconstituted in the assay buffer consisting of 80 mM NaH2PO4/Na2HPO4, 0.1 % HSA (Orpha 20/21, Behring), 10 mM EDTA, 0.6 mM thiomersal (Sigma), pH 7.5. Samples were reconstituted in volumes suitable for their expected concentrations, and were allowed to reconstitute for 30 min. To 300 µl sample, 100 µl antibody solution in dilution buffer containing 40 mM NaH2PO4/Na2HPO4, 0.1 % HSA, 0.6 mM thiomersal, pH 7.5, was added. A non-specific sample was prepared by mixing 300 µl buffer with 100 µl dilution buffer. Individual standards were prepared from freeze dried stocks, dissolved in 300 µl assay buffer. All samples were pre-incubated in Minisorp tubes with antibody as described above for 72 h. […] Immediately after the centrifugation, the supernatant was decanted and counted in a γ-counter. The concentration in the samples was calculated from individual standard curves. Plasma concentrations were found, calculated as % of the maximum concentration for the individual compounds (n=2).

With “GLP-1 (1-37) (HDEFERHAEGTFTSDVSSYLEGQAAKEFIAWLVKGRG; Glucagon-like peptide 1; UniProt P01275 92-128, looked up, fragment)” the cross reactivities was “less than 1%”.

From patent EP1840134B1 (NOVO NORDISK A/S, priority 1998, dated 2016)
